One substance from patent US20250144179A1, “PEPTIDE HORMONE TO PREVENT OR TREAT VASOSPASM, BRAIN INJURY OR CEREBRAL EDEMA” (UNIVERSITY OF FLORIDA RESEARCH FOUNDATION, INCORPORATED, priority 2022, published 2025) can be followed below.

“Also recorded” adds a separate entry of the source.

Assay type in all cases: in vivo, mouse
The test system of data set [1] is wild-type mice, SAH model. As to the kind of experiment: Delayed cerebral vessel casting, MCA diameter (vasospasm) after SAH. As for the experimental part: Synthetic adropin^34-76 peptide was supplied from Bachem (Bubendorf, Switzerland) and diluted in 0.1% BSA in saline. 0.1% BSA in saline was used as vehicle control for all experiments. […] For experiments ending at 24 hours post-SAH, an identical dose of adropin/vehicle was given again 12 hours later. For experiments ending 7 days post-SAH, adropin/vehicle was given again on days 1, 3 & 5 post-SAH. In the aneurysm rupture model, adropin was given at a dose of 450 nmol/kg starting 3 days before aneurysm induction (elastase injection). Adropin was given every other day until sacrifice
SAH was modeled using the anterior circulation single autologous blood injection method^25,33 with minor adjustments. Mice were anesthetized with ketamine (100 mg/kg) and xylazine (10 mg/kg) before removing hair from scalp and cleaning with serial betadine—saline washes. […]
Middle cerebral artery diameter were measured as previously reported.^36,37 One week post-SAH, mice were deeply anesthetized with ketamine and xylazine before being serially perfused through the left ventricle with PBS (5 mL), 4% PFA (15 mL), and 20% India ink dissolved in 5% gelatin. […] Brains were imaged and analyzed by an observer blinded to group assignment. The narrowest diameter within the first 2000 μm of the middle cerebral artery (MCA) after the terminal interior carotid artery bifurcation (M1 segment) was measured to assess vasospasm. […]

Data set [2] is described as follows: Mean arterial pressure in the aneurysm rupture model. Particulars: before and after aneurysm induction, adropin vs vehicle. Here is the method: (§1) Synthetic adropin^34-76 peptide was supplied from Bachem (Bubendorf, Switzerland) and diluted in 0.1% BSA in saline. 0.1% BSA in saline was used as vehicle control for all experiments. Adropin (450 nmol/kg) or an equivalent volume of vehicle was delivered via intraperitoneal injection 15 minutes post-SAH. For experiments ending at 24 hours post-SAH, an identical dose of adropin/vehicle was given again 12 hours later. For experiments ending 7 days post-SAH, adropin/vehicle was given again on days 1, 3 & 5 post-SAH. In the aneurysm rupture model, adropin was given at a dose of 450 nmol/kg starting 3 days before aneurysm induction (elastase injection). Adropin was given every other day until sacrifice
Cerebral aneurysms were induced as previously described. Briefly, mice were anesthetized with ketamine (100 mg/kg) and xylazine (10 mg/kg) before the left common carotid artery and the right renal artery were ligated with 7-0 silk suture (Ethicon Inc., Somerville, New Jersey). Carotid and renal artery ligations are hereafter referred to as ligations. […]

For data set [3], the system named is wild-type mice, SAH model. As to the kind of experiment: TUNEL/NeuN staining for neuronal apoptosis after SAH. Particulars: seven days post-SAH. As for the experimental part:
as §1
SAH was modeled using the anterior circulation single autologous blood injection method^25,33 with minor adjustments. […]
Following perfusion-fixation and overnight post-fixation in 4% PFA, brain samples were embedded in paraffin wax and cut into […] sections with a Leica RM2125 RTS microtome (Leica Microsystems, Buffalo Grove, New York) and adhered to poly-L-lysine-coated glass slides. […] Primary antibodies were detected using donkey anti-rabbit IgG AlexaFluor594, donkey anti-rabbit IgG AlexaFluor488, donkey anti-rat IgG AlexaFluor594, or donkey anti-goat IgG AlexaFluor488 (all from ThermoFisher, Waltham, Massachusetts). […] All images were analyzed by two blinded observers.

Take “adropin (CHSRSADVDSLSESSPNSSPGPCPEKAPPPQKPSHEGSYLLQP) [Synthetic adropin^34-76 peptide from Bachem]”: the “ipsilateral MCA diameter (cerebral vasospasm)” value in data set [1] (seven days post-SAH, treatment started 15 minutes post-SAH) was “adropin-treatment reversed this phenotype”. For the same substance, in data set [1] (treatment initiated at 24 hours post-SAH), the “cerebral vasospasm (MCA diameter)” value is recorded as “strong trend for reduced cerebral vasospasm”. The “systemic blood pressure / mean arterial pressure (MAP)” value in data set [2] was “No difference was found in blood pressure; also recorded: no effect on MAP before or after aneurysm induction”. Also, the “NeuN+/TUNEL+ cells (neuronal apoptosis)” value in data set [3] is “did not have as many TUNEL^+ neurons”.
